Measurements: article PMC6009938, “The use of dimethylsulfoxide as a solvent in enzyme inhibition studies: the case of aldose reductase” (Journal of Enzyme Inhibition and Medicinal Chemistry, 2017)

How the values were obtained:
Type in all cases: biochemical
[1] = target: T1, human recombinant AR (hAR) (Homo sapiens, UniProt P15121); assay: Aldose reductase assay, L-idose reduction (NADPH oxidation at 340 nm); settings: for Inhibition model / Ki′ / Ki: substrate L-idose
T1 construct: made in house
Protocol: (§1) One unit of enzyme activity is the amount that catalyses the conversion of 1 µmol of substrate/min in the above assay conditions. These assay conditions were also adopted to assess the effectiveness of inhibitors when L-idose, trans-4-hydroxy-2,3-nonenal (HNE), or 3-glutathionyl-4-hydroxynonenal (GSHNE) was used as a substrate instead of GAL.
(§2) The human recombinant AR (hAR) was expressed and purified as previously described. […] The purified enzyme was stored at −80 °C in a 10 mM sodium phosphate buffer pH 7.0 containing 2 mM DTT and 30% (w/v) glycerol. Before use, the enzyme was extensively dialysed against a 10 mM sodium phosphate buffer pH 7.0.

[2] = target: T1, human recombinant AR (hAR); assay: Aldose reductase assay, HNE reduction (NADPH oxidation at 340 nm); settings: for Inhibition model / Ki′: substrate HNE
Protocol: (§3) The AR activity was determined at 37 °C as previously described, following the decrease in absorbance at 340 nm due to NADPH oxidation (ε 340 = 6.22 mM^−1·cm^−1) through a Biochrom Libra S60 spectrophotometer (Biochrom, Cambridge, United Kingdom). The standard assay mixture contained a 0.25 M sodium phosphate buffer pH 6.8, 0.18 mM NADPH, 0.4 M ammonium sulphate, 0.5 mM EDTA and 4.7 mM GAL. One unit of enzyme activity is the amount that catalyses the conversion of 1 µmol of substrate/min in the above assay conditions. These assay conditions were also adopted to assess the effectiveness of inhibitors when L-idose, trans-4-hydroxy-2,3-nonenal (HNE), or 3-glutathionyl-4-hydroxynonenal (GSHNE) was used as a substrate instead of GAL.
as §2
The protein concentration was determined according to Bradford[35], using BSA as a standard protein. HNE was prepared as previously described. GSHNE was prepared as previously described[37] by incubation of GSH and HNE, monitoring the time course of GSH consumption. The residual GSH was determined as previously described.

[3] = target: T1, human recombinant AR (hAR); assay: Aldose reductase assay, GSHNE reduction; settings: up to 100 mM in the assay mixture; different substrate concentrations
Protocol: as §3
The human recombinant AR (hAR) was expressed and purified as previously described. […] The specific activity of purified hAR was 5.3 U/mg. The purified enzyme was stored at −80 °C in a 10 mM sodium phosphate buffer pH 7.0 containing 2 mM DTT and 30% (w/v) glycerol. Before use, the enzyme was extensively dialysed against a 10 mM sodium phosphate buffer pH 7.0.
The protein concentration was determined according to Bradford[35], using BSA as a standard protein. HNE was prepared as previously described. […] The residual GSH was determined as previously described.

[4] = target: T1, human recombinant AR (hAR); assay: Aldose reductase assay, GAL reduction
Protocol: as §1, §2

[5] = DMSO 40 mM, apparent, ESI complex
[6] = DMSO 100 mM, apparent, ESI complex
[7] = DMSO 200 mM, apparent, ESI complex
[8] = No DMSO, dissociation constant of ESI complex

Row | Compound | Inhibition model [1] | Ki′ [1, 5] [µM] | Ki′ [1, 6] [µM] | Ki′ [1, 7] [µM] | Ki′ [1, 8] [µM] | Inhibition model [2] | Ki′ [2, 5] [µM] | Ki′ [2, 6] [µM] | Ki′ [2, 7] [µM] | Ki′ [2, 8] [µM] | Inhibition model ([1]; listed as rutin) | Inhibition model ([2]; listed as rutin) | effect on the reduction of GAL catalysed by AR [4] | Ki ([1]; DMSO 40 mM, apparent) [µM] | Ki ([1]; DMSO 100 mM, apparent) [µM] | Ki ([1]; DMSO 200 mM, apparent) [µM] | Ki ([1]; No DMSO) [µM] | effect on enzyme activity with GSHNE as substrate [3] | inhibition of AR activity ([1]; 0.7% (v/v) (approximately 0.17 M), L-idose 0.4–4 mM) | inhibition of AR activity ([2]; 0.7% (v/v) (approximately 0.17 M), HNE 40–110 µM)
1 | COc1ccc(CCC(=O)c2c(O)cc(O[C@@H]3O[C@H](CO)[C@@H](O)[C@H](O)[C@H]3O[C@@H]3O[C@@H](C)[C@H](O)[C@@H](O)[C@H]3O)cc2O)cc1O [NHDC, neohesperidin dihydrochalcone] | mixed inhibitors | 286 ± 53 | 230 ± 35 | 283 ± 2 | 292 ± 17 | uncompetitive inhibitors | 134 ± 11 | 150 ± 22 | 199 ± 6 | 122 ± 19 | – | – | – | 114 ± 15 | 125 ± 16 | 194 ± 17 | 93 ± 17 | – | – | –
2 | C[S+](C)[O-] [DMSO, dimethyl sulfoxide] | competitive inhibition | – | – | – | – | mixed type of inhibition | – | – | – | – | – | – | no effect | – | – | – | – | no effect of interference on the enzyme activity | – | –
3 | CO [methanol] | – | – | – | – | – | – | – | – | – | – | – | – | – | – | – | – | – | – | less than 5% | less than 5%

Now from value to compound, other results behind:

Row | Inhibition model [1] | Ki′ [1, 5] [µM] | Ki′ [1, 6] [µM] | Ki′ [1, 7] [µM] | Ki′ [1, 8] [µM] | Inhibition model [2] | Ki′ [2, 5] [µM] | Ki′ [2, 6] [µM] | Ki′ [2, 7] [µM] | Ki′ [2, 8] [µM] | Inhibition model ([1]; listed as rutin) | Inhibition model ([2]; listed as rutin) | effect on the reduction of GAL catalysed by AR [4] | Compound | Ki ([1]; DMSO 40 mM, apparent) [µM] | Ki ([1]; DMSO 100 mM, apparent) [µM] | Ki ([1]; DMSO 200 mM, apparent) [µM] | Ki ([1]; No DMSO) [µM] | effect on enzyme activity with GSHNE as substrate [3] | inhibition of AR activity ([1]; 0.7% (v/v) (approximately 0.17 M), L-idose 0.4–4 mM) | inhibition of AR activity ([2]; 0.7% (v/v) (approximately 0.17 M), HNE 40–110 µM)
4 | Mixed | 62.9 ± 2.3 | 50.3 ± 4.8 | 60.9 ± 2.1 | 52.5 ± 3.8 | Mixed | 64.7 ± 1.4 | 73.4 ± 7.5 | 99.5 ± 7.3 | 56.5 ± 4.5 | – | – | – | O=C(CCc1ccc(O)cc1)c1c(O)cc(O)cc1O [Phloretin, phloretin] | – | – | – | – | – | – | –
5 | Mixed | 7.6 ± 1.2 | 11.7 ± 0.5 | 12.7 ± 2.0 | 9.3 ± 1.1 | Uncompetitive | 10.5 ± 2.0 | 12.8 ± 1.9 | 16.5 ± 1.9 | 9.2 ± 0.9 | mixed inhibitors | uncompetitive inhibitors | – | C[C@@H]1O[C@@H](OC[C@H]2O[C@@H](Oc3c(-c4ccc(O)c(O)c4)oc4cc(O)cc(O)c4c3=O)[C@H](O)[C@@H](O)[C@@H]2O)[C@H](O)[C@H](O)[C@H]1O [Rutin, rutin] | 20.3 ± 1.1 | 24.8 ± 3.8 | 45.6 ± 5.5 | 17.8 ± 3 | – | – | –
